Activity calls are given as the source filed them. No cut-off for these calls is given here.

One may read the DC50 as the concentration at which degradation of the target reaches its halfway point.

Assay [1] concerns the target Mitogen-activated protein kinase 7 (Homo sapiens, UniProt Q13164). Description: Inhibition of ERK5 (unknown origin) at 0.5 uM by kinase profiling analysis.
Assay [2] addresses T1, von Hippel-Lindau disease tumor suppressor/Mitogen-activated protein kinase 7 (Homo sapiens, UniProt Q13164+P40337). Kind of assay: PROTAC activity at VHL/ERK5 in human MDA-MB-231 cells assessed as maximal induction of ERK5 degradation incubated for 12 hrs by western blot analysis relative to control. It counts as cell-based. A general note: Immunoblotting shows a protein as a band on a membrane.
Target sequence in this assay (P40337 whole entry partner): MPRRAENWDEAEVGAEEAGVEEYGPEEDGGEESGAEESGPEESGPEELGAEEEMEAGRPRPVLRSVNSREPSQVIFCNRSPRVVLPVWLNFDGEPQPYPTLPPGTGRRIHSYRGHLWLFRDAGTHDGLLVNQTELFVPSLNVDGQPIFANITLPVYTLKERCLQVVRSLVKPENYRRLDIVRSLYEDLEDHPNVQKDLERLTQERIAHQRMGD
Target sequence in this assay (Q13164 2-816 limits assumed): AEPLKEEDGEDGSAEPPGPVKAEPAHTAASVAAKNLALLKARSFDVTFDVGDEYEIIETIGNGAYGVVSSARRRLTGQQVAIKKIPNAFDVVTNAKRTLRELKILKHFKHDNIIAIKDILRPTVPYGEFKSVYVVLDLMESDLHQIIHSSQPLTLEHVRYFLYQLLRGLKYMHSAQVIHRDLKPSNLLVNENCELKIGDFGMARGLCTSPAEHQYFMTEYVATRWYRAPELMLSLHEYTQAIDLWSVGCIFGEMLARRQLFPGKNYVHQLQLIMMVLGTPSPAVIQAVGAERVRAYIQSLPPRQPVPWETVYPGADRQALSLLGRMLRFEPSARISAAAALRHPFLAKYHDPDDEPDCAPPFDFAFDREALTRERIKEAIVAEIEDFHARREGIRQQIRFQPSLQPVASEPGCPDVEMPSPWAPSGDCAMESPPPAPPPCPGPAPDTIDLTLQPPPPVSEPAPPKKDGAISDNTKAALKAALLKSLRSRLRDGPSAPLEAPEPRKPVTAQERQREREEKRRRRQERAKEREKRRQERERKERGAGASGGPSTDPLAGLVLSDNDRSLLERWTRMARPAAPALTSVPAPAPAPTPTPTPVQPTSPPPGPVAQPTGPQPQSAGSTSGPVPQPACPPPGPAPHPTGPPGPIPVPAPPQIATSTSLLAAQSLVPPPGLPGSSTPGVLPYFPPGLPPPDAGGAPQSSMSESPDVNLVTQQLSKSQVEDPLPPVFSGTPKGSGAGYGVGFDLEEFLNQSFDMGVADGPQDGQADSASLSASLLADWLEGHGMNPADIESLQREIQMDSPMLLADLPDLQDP

The subject of assay [3] is A-375. Kind of assay: Effect on GDC0994-induced antitumor activity against human A-375 cells assessed as reduction in cell viability at 200 nM incubated for 72 hrs by CCK8 assay. In kind it is functional, cell-based. For orientation: Tetrazolium assays rely on reduction of a dye to a coloured formazan, in cell work by metabolically active cells.
A short description of assay [4]: Inhibition of M2 macrophage development in PMA-differentiated human THP-1 cells assessed as CD206 surface expression at 0.5 uM incubated for 48 hrs by flow cytometry (reference value: 53.4%). On the set-up: scale not given: the % may be the effect or the level left. In kind it is functional. (A flow cytometer gives signals particle by particle.)
Assay [5] deals with A-375. Description: Effect on vemurafenib-induced antitumor activity against human A-375 cells assessed as reduction in cell viability at 200 nM incubated for 72 hrs by CCK8 assay. In kind it is functional, cell-based.
The subject of assay [6] is HCT-116. Kind of assay: Inhibition of M2 macrophage development in human HCT-116 cells assessed as inhibition of cell colony formation at 0.5 uM cultured in specific M2 medium and measured after 7 days in presence of LPS by crystal violet staining based analysis. In kind it is functional. Conditions: time 7.0 day.
Assay [7] has as its target T1, von Hippel-Lindau disease tumor suppressor/Mitogen-activated protein kinase 7. Description: PROTAC activity at VHL/ERK5 in human HCT-116 cells assessed as maximal induction of ERK5 degradation incubated for 12 hrs by western blot analysis relative to control. It counts as cell-based.
Target sequence in this assay (P40337 whole entry partner): as the sequence (P40337 whole entry partner) above
Target sequence in this assay (Q13164 2-816 limits assumed): as the sequence (Q13164 2-816 limits assumed) above
The subject of assay [8] is HCT-116. Kind of assay: Effect on mirdametinib-induced antitumor activity against human HCT-116 cells assessed as reduction in cell viability at 200 nM incubated for 72 hrs by CCK8 assay. In kind it is functional, cell-based.
For assay [9], the system named is A-375. Kind of assay: Antiproliferative activity against human A-375 cells assessed as reduction in cell viability incubated for 72 hrs by CCK8 assay. In kind it is functional, cell-based.
Assay [10] concerns HCT-116. Description: Antiproliferative activity against human HCT-116 cells assessed as reduction in cell viability incubated for 72 hrs by CCK8 assay. In kind it is functional, cell-based.
In assay [11] the target is T1, von Hippel-Lindau disease tumor suppressor/Mitogen-activated protein kinase 7. Kind of assay: PROTAC activity at VHL/ERK5 in human NCI-H1975 cells assessed as induction of ERK5 degradation incubated for 12 hrs by western blot analysis. In kind it is cell-based.
Target sequence in this assay (Q13164 whole entry): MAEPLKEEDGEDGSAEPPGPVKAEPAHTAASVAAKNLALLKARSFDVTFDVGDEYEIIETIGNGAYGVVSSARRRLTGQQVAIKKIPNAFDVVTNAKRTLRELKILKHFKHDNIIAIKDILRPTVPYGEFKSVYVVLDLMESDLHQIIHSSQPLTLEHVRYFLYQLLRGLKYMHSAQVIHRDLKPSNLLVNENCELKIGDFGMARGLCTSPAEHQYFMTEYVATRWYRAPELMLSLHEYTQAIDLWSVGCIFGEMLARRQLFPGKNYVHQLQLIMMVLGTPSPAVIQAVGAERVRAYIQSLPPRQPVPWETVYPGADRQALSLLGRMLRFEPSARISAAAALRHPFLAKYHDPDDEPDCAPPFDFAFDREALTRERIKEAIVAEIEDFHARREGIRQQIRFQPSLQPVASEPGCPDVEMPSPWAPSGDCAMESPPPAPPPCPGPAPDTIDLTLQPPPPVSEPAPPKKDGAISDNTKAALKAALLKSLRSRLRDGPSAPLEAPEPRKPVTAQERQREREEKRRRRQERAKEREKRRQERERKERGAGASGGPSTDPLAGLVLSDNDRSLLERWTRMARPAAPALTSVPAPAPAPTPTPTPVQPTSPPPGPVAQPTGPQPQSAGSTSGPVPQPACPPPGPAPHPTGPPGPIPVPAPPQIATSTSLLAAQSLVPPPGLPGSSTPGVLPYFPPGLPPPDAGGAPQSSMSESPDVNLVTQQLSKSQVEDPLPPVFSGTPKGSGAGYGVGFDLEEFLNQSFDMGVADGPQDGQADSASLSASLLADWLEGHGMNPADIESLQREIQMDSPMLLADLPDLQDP
Target sequence in this assay (P40337 whole entry): as the sequence (P40337 whole entry partner) above
In assay [12] the test system is A-375. Kind of assay: Effect on trametinib-induced antitumor activity against human A-375 cells assessed as reduction in cell viability at 200 nM incubated for 72 hrs by CCK8 assay. It counts as functional, cell-based.
The test system of assay [13] is HCT-116. Kind of assay: Effect on vemurafenib-induced antitumor activity against human HCT-116 cells assessed as reduction in cell viability at 200 nM incubated for 72 hrs by CCK8 assay. In kind it is functional, cell-based.
Assay [14] addresses T1, von Hippel-Lindau disease tumor suppressor/Mitogen-activated protein kinase 7. Kind of assay: PROTAC activity at VHL/ERK5 in human HCT-116 cells assessed as induction of ERK5 degradation incubated for 12 hrs by western blot analysis. It counts as cell-based.
Target sequence in this assay (Q13164 whole entry): as the sequence (Q13164 whole entry) above
Target sequence in this assay (P40337 whole entry): as the sequence (P40337 whole entry partner) above
For assay [15] the target is unchanged. Kind of assay: PROTAC activity at VHL/ERK5 in human MDA-MB-231 cells assessed as induction of ERK5 degradation incubated for 12 hrs by western blot analysis. It counts as cell-based.
Target sequence in this assay (Q13164 whole entry): as the sequence (Q13164 whole entry) above
Target sequence in this assay (P40337 whole entry): as the sequence (P40337 whole entry partner) above
Assay [16] has the same target. Kind of assay: PROTAC activity at VHL/ERK5 in human HepG2 cells assessed as maximal induction of ERK5 degradation incubated for 12 hrs by western blot analysis relative to control. In kind it is cell-based.
Target sequence in this assay (P40337 whole entry partner): as above
Target sequence in this assay (Q13164 2-816 limits assumed): as the sequence (Q13164 2-816 limits assumed) above
The target is the same in assay [17]. Description: PROTAC activity at VHL/ERK5 in human A-375 cells assessed as maximal induction of ERK5 degradation incubated for 12 hrs by western blot analysis relative to control. In kind it is cell-based.
Target sequence in this assay (P40337 whole entry partner): as the sequence (P40337 whole entry partner) above
Target sequence in this assay (Q13164 2-816 limits assumed): as the sequence (Q13164 2-816 limits assumed) above
Assay [18] concerns A-375. Kind of assay: Effect on ERK5 mRNA expression in human A-375 cells at 10 to 1000 nM incubated for 24 hrs by real-time PCR analysis. It counts as functional, cell-based. As to conditions: dose 10-1000 nM.
The target in assay [19] is T1, von Hippel-Lindau disease tumor suppressor/Mitogen-activated protein kinase 7. Description: PROTAC activity at VHL/ERK5 in human A-375 cells assessed as induction of ERK5 degradation incubated for 24 hrs by western blot analysis. It counts as cell-based.
Target sequence in this assay (Q13164 whole entry): as the sequence (Q13164 whole entry) above
Target sequence in this assay (P40337 whole entry): as the sequence (P40337 whole entry partner) above
The target is the same in assay [20]. Description: PROTAC activity at VHL/ERK5 in human PC-3 cells assessed as induction of ERK5 degradation incubated for 12 hrs by western blot analysis. It counts as cell-based.
Target sequence in this assay (Q13164 whole entry): as the sequence (Q13164 whole entry) above
Target sequence in this assay (P40337 whole entry): as the sequence (P40337 whole entry partner) above
For assay [21] the target is unchanged. Kind of assay: PROTAC activity at VHL/ERK5 in human A-375 cells assessed as induction of ERK5 degradation incubated for 12 hrs by western blot analysis. It counts as cell-based.
Target sequence in this assay (Q13164 whole entry): as the sequence (Q13164 whole entry) above
Target sequence in this assay (P40337 whole entry): as the sequence (P40337 whole entry partner) above
The test system of assay [22] is HCT-116. Kind of assay: Effect on trametinib-induced antitumor activity against human HCT-116 cells assessed as reduction in cell viability at 200 nM incubated for 72 hrs by CCK8 assay. It counts as functional, cell-based.
The target in assay [23] is T1, von Hippel-Lindau disease tumor suppressor/Mitogen-activated protein kinase 7. Kind of assay: PROTAC activity at VHL/ERK5 in human A-375 cells assessed as induction of ERK5 degradation at 100 nM incubated for 24 hrs by western blot analysis. It counts as cell-based.
Target sequence in this assay (P40337 whole entry partner): as above
Target sequence in this assay (Q13164 2-816 limits assumed): as the sequence (Q13164 2-816 limits assumed) above
For assay [24] the target is unchanged. Description: PROTAC activity at VHL/ERK5 in human HepG2 cells assessed as induction of ERK5 degradation incubated for 12 hrs by western blot analysis. In kind it is cell-based.

Sequence of Mitogen-activated protein kinase 7 (Q13164 2-816 limits assumed): as above

In the case of `COc1cc(N2CCN(CCCCCCC(=O)N[C@H](C(=O)N3C[C@H](O)C[C@H]3C(=O)N[C@@H](C)c3ccc(-c4scnc4C)cc3)C(C)(C)C)CC2)ccc1Nc1ncc2c(n1)N(C)c1ccccc1C(=O)N2C`, the inhibition result (in [1]; with HCT-116 [6]) was “Active” throughout. Besides, the Activity stood at 86.7% in [2]; 41.3% in assay [4]; 88.9% in assay [7]; 92.7% in assay [16]; 91.4% in assay [17]. Besides, the outcome with A-375 [3], in the assay on A-375 [5], in the assay with HCT-116 [8], in the assay on A-375 [9], with HCT-116 [10] and in the assay with A-375 [12] was inactive. The outcome in the assay with HCT-116 [13], in the assay with A-375 [18] and with HCT-116 [22] was inactive. The DC50 in assay [11] is 11.5 nM; in assay [14], 5.6 nM; in [15] it was 22.7 nM; in [19] it was ~17 nM; in assay [20] it was 23.5 nM; in assay [21] it was 41.4 nM. Besides, in assay [24], the DC50 is 13.7 nM. The result in assay [23] was Active.

The values above are taken from ChEMBL document CHEMBL5365526 (J Med Chem, 2023).
